Assay results taken from PubChem BioAssay AID463206 (Broad Institute, 2010).
Activity calls are given as the source filed them.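 Rule for the calls: active = caspase luminescence falls with dose and the half-maximal concentration AC50 from the fitted curve is at or below a set limit; inconclusive = flat fit at 30 to 70% signal loss, or invalid fit; inactive = AC50 above the limit, or signal rises instead.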

Tested on: INS-1E cytokine-induced caspase-3/7, Caspase-Glo luminescence, 48 h
Experiment: suppression of cytokine-driven beta-cell apoptosis – INS-1E rat cells, luminescence, orthogonal assay for beta-cell apoptosis protection project, dose response (AID 463206)

SMILES | AC50
COC1=C(Nc2ccccc2)C(=O)c2ccccc2C1=O | > 26 µM (inactive)
CCn1c(=NC(=O)c2ccc(S(=O)(=O)N3CCOCC3)cc2)sc2cccc(OC)c21 | > 26 µM (inactive)
O=C(Cn1c(-c2ccccc2)c[n+]2ccsc12)c1ccc([N+](=O)[O-])cc1 | > 26 µM (inactive)
CCC(CC)C(=O)c1c[nH]c(C(=O)NCc2ccccn2)c1 | > 26 µM (inactive)
O=C(Nc1cccnc1)c1cccnc1 | > 26 µM (inactive)
COc1ccc(C(=O)NC(=S)NNC(=O)c2cnccn2)cc1 | > 26 µM (inactive)
CC(=O)NN1C(=O)c2ccc3c4c(ccc(c24)C1=O)C(=O)N(NC(C)=O)C3=O | > 26 µM (inactive)
CC(C)(C)c1cc([N+](=O)[O-])cc(C(C)(C)C)c1O | > 26 µM (inactive)
Cn1cc(CNCc2ccc(OC(F)(F)F)cc2)c(-c2ccc3c(c2)OCCO3)n1 | > 26 µM (inactive)
CCCCC(=O)NC(c1ccc(Cl)cc1)c1ccc2cccnc2c1O (stereo not given) | > 12 µM (inactive)
CN(C)S(=O)(=O)c1ccc(Nc2nc(C3CC3)nc3c2nnn3Cc2ccccc2Cl)cc1 | > 26 µM (inactive)
COc1ccc(-n2cc(-c3ccccc3)[n+]3c2CCCCC3)cc1 | > 26 µM (inactive)
CCCc1cc(=O)n2[nH]cc(-c3ccc(Cl)cc3)c2n1 | > 26 µM (inactive)
CCN(CC)c1ccc(/C=N/NC(=O)c2ccc3nc[nH]c3c2)c(O)c1 | > 26 µM (inactive)
CC(C)(C)Sc1ccc2nc3c(n2c1)CCCC3 | > 26 µM (inactive)
COc1cc(NC(C)CCCN)c2ncccc2c1 (stereo not given) | > 26 µM (inactive)
CC(C)C(=O)NC(=S)/C=C1/N(C)c2ccccc2C1(C)C | > 26 µM (inactive)
CCc1ccc(OC)c(S(=O)(=O)Nc2ccc(Cc3ccncc3)cc2)c1 | > 26 µM (inactive)
COc1ccc2c(c1)N(C)/C(=C/c1cccc[n+]1C)S2 | > 26 µM (inactive)
CCc1c(C)sc2nc(C(C)C)nc(SCC(=O)N3CCc4ccccc4C3)c12 | > 26 µM (inactive)
COc1ccc(C(NC(C)=O)c2cc(Cl)c3cccnc3c2O)cc1 (stereo not given) | > 26 µM (inactive)
Fc1ccccc1N=C1NN=C(c2ccccc2)CS1 | > 26 µM (inactive)
C=C1C(=O)C=C2CN(C(=O)c3ccccc3)[C@@](Cc3ccc(F)cc3)(C(=O)OC)[C@@H]12 | > 26 µM (inactive)

SMILES | AC50
COc1ncnc(OC)c1S(=O)(=O)Nc1ccc(C(F)(F)F)cc1 | > 26 µM (inactive)
O=C(CN1CC[n+]2c(-c3cccs3)csc21)c1ccc(-c2ccccc2)cc1 | > 26 µM (inactive)
CC1CCc2c(sc3nc(C(C)(C)C)nc(N4CCN(C(=O)CCl)CC4)c23)C1 (stereo not given) | > 26 µM (inactive)
CC(C)(C)c1ccc(C2CC2C(=O)N/N=C\c2ccc[nH]2)cc1 (stereo not given) | > 26 µM (inactive)
C=CCN(CC=C)CC(O)Cn1c2ccccc2c2ccccc21 (stereo not given) | > 26 µM (inactive)
COC(=O)[C@H](Cc1ccccc1)N(Cc1ccccc1)S(=O)(=O)N(Cc1ccccc1)[C@@H](Cc1ccccc1)C(=O)OC | > 26 µM (inactive)
COc1cc2nc(N3CCN(c4cc(C)ccc4C)CC3)nc(N)c2cc1OC | > 26 µM (inactive)
CCOC(=O)c1c(C)[nH]c(C)c1C(=O)CSc1nc2ccccc2c(=O)n1-c1ccc(CC)cc1 | > 26 µM (inactive)
O=C(N/N=C/c1sc(N2CCOCC2)nc1-c1ccccc1)c1cccc(S(=O)(=O)N2CCCC2)c1 | > 26 µM (inactive)
O=C(N/N=C/c1cc(Br)cc(Br)c1O)c1ccncc1 | > 26 µM (inactive)
O=C(N/N=C\c1cc(Br)ccc1O)c1ccc(S(=O)(=O)N2CCCCC2)cc1 | > 26 µM (inactive)
CCCOc1ccc(CSc2nc3ccccc3[nH]2)cc1 | > 26 µM (inactive)
CC(C)(C)OC(=O)N1CCC(CNC(=O)c2cccs2)CC1 | > 26 µM (inactive)
CN(C)CCCNc1c2ccccc2nc2ccccc12 | > 26 µM (inactive)
C#CCOCCOCCOCCNc1nc(N2CCN(C(=O)CCCCCCCCCCNC(=O)[C@H](CCCCN)n3cc(C)nn3)CC2)nc(N2CCN(C(=O)CCCCCCCCCCNC(=O)[C@H](CCCN=C(N)N)n3cc(C[C@@H](C)CC)nn3)CC2)n1 | > 26 µM (inactive)
Cc1ccc(-n2c(Cl)c(Cl)nc(Cl)c2=O)cc1 | > 26 µM (inactive)
O=[N+]([O-])c1ccc(N2CCN(C(=S)NCc3ccc(Cl)cc3)CC2)cc1 | > 26 µM (inactive)
CC(C)(C)c1ccc(NNC(=O)C2CCC2)cc1 | > 26 µM (inactive)
O=C(Nc1ccc(S(=O)(=O)N2CCOCC2)cc1)c1ccc([N+](=O)[O-])s1 | > 26 µM (inactive)
O=C(N/N=C/c1ccc(O)cc1O)c1ccc(NC(=O)C2CCCCC2)cc1 | > 26 µM (inactive)
C=CCC1(CC=C)CCCN1C(=O)c1cc(COc2ccc(C)nc2)on1 | > 26 µM (inactive)
O=C1C(Cl)=C(Nc2ccc3cn[nH]c3c2)C(=O)c2ccccc21 | > 26 µM (inactive)
